Converted amounts (≈) assume the structure as drawn.
What was measured:
[1] = tested on: Streptococcus pneumoniae; assay: Antibacterial activity against Streptococcus pneumoniae D39 by NCCLS method; type: functional
[2] = tested on: Streptococcus pyogenes; assay: Antibacterial activity against Streptococcus pyogenes C203 by NCCLS method; type: functional
[3] = tested on: Streptococcus pneumoniae; assay: Antibacterial activity against fluoroquinolone resistant Streptococcus pneumoniae SP-3765 by NCCLS method; type: functional
[4] = tested on: Staphylococcus aureus; assay: Antibacterial activity against Staphylococcus aureus UC76 by NCCLS method; type: functional, organism-based
[5] = tested on: Staphylococcus aureus; assay: Antibacterial activity against methicillin resistant Staphylococcus aureus 01A-1095 by NCCLS method; type: functional
[6] = target: T1, ParE (Streptococcus pneumoniae, UniProt Q7X1P7); assay: Inhibition of Streptococcus pneumoniae SP-3 parE after 30 mins
T1 sequence (Q7X1P7 whole entry): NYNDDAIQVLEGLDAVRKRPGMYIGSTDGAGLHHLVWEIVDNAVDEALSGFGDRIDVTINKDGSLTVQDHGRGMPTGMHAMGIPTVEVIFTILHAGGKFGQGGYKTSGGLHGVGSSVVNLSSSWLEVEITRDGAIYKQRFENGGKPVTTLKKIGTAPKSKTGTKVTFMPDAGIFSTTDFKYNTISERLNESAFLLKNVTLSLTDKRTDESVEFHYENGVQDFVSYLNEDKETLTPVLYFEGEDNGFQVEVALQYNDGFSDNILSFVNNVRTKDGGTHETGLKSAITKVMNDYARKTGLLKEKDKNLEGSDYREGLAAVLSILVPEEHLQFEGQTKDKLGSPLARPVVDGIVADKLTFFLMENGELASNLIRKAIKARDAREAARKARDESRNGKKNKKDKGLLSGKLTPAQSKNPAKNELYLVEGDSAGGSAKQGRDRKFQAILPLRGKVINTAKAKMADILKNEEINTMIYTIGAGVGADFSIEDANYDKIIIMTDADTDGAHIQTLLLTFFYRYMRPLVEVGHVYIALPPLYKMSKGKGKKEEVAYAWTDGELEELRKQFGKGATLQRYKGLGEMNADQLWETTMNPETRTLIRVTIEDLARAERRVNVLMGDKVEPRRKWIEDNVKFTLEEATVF

CO[C@@H]1[C@@H](OC(N)=O)[C@@H](O)[C@H](Oc2ccc3c(O)c(NC(=O)c4ccc(O)c(CC=C(C)C)c4)c(=O)oc3c2C)OC1(C)C [NOVOBIOCIN]
MIC [1]: 4 µg/mL (≈ 6.53 µM) | MIC [2]: 8 µg/mL (≈ 13.1 µM) | MIC [3]: 4 µg/mL (≈ 6.53 µM) | MIC [4]: 0.125 µg/mL (≈ 0.204 µM) | MIC [5]: 0.125 µg/mL (≈ 0.204 µM) | IC50 [6]: 2030 nM

Reference: ChEMBL document CHEMBL1155993, “5-(2-Pyrimidinyl)-imidazo[1,2-a]pyridines are antibacterial agents targeting the ATPase domains of DNA gyrase and topoisomerase IV” (Bioorg Med Chem Lett, 2009)
